The subject of one data set is L. betulinus P2O. Nature of the data set: Relative activities of purified L. betulinus P2O on pyranose substrates. The class given is biochemical. The conditions noted are these: 20 mM substrate concentration; D-glucose = 100. The method, then:
The resulting clear yellow supernatant was further purified using DEAE chromatography in 30 mM TRIS-HCl, pH 8.5, and eluted from the 5×16 cm column using a 0-300 mM NaCl gradient. The protein eluted at about 75 mM NaCl. Fractions containing the peak of P2O activity were pooled and concentrated to 0.5 ml by Amicon PM30 ultrafiltration, and then fractionated, according to native molecular weight, using a 1.5×95 cm Biogel P300 column. The column was run at a flow rate of 0.1 ml per minute, using 100 mM sodium phosphate, pH 7.0. The protein eluted in a fraction corresponding to an apparent native molecular weight of about 300,000 daltons. […] Based on the molecular weight data, the protein appears to be a homotetramer.
The enzyme contains a covalently attached flavin on each subunit, and has absorption maxima at 275, 360, and 450 nm. The relative activities of the purified enzyme on the pyranose substrates D-glucose, L-sorbose, D-xylose and delta-D-gluconolactone are 100: 43: 43: 26, respectively, at 20 mM substrate concentration. The enzyme has a broad pH optimum between about 5 and 6.

Another data set deals with P. obtusus P2O. Kind of data set: Relative activities of purified P. obtusus P2O on pyranose substrates. The data set is classed as biochemical. The conditions noted are these: about 1% (w/v) substrate concentration; D-glucose = 100. The method, then:
The P2O enzyme preparation from Example II was purified further using DEAE chromatography in 30 mM TRIS-HCl, pH 8.5, containing 2 mM EDTA and 10 ug/ml PMSF. The sample was eluted from a 5×16 cm column using a gradient of 0-300 mM NaCl. P2O activity was monitored using the orthodianisidine colorometric assay for the peroxide co-product, essentially as described by Ruelius et al., Biochim et Biophys. Acta 167, 493-500 (1968). P2O activity eluted at about 50 mM NaCl. Fractions containing the peak activity were pooled and concentrated to 0.5 ml by ultrafiltration using Amicon filters obtained from Amicon Corp. (Danvers, MA). Biogel P300 was obtained from Biorad Laboratories (Richmond, CA). The sample was further purified by molecular sieve chromatography using a 1.5×95 cm Biogel P300 column in 100 mM sodium phosphate, pH 7 buffer. The P2O activity eluted at a sharp peak corresponding to an apparent native molecular weight of about 290,000 daltons.
The enzyme appears to contain one covalently bound flavin molecule per subunit (detectable as UV-fluorescence in the 68,000 dalton SDS-PAGE band), and has absorption maxima at 276, 357 and 456 nm. The enzyme has a sedimentation coefficient of about 11.4, as determined by sucrose gradient ultracentrifugation. The relative activities of the enzyme, on D-glucose, L-sorbose, D-xylose, and D-gluconolactone are 100: 80: 48: 12, respectively, at about 1% (w/v) substrate concentration. As noted above with respect to FIG. 2, the enzyme has a broad pH optimum of between about 4.5 and 5.5.

The target of the next data set is T1, C. versicolor P2O (Trametes versicolor, UniProt P79076).
T1 construct: endogenous in cells; host or cells: Coriolus versicolor, own culture (NRRL 15152 / CMCC 0748, selected high producer; native enzyme, purified)
Nature of the data set: Relative activities of purified C. versicolor P2O on pyranose substrates. The data set is classed as biochemical. To be noted: 1% (w/v) substrate concentration; D-glucose = 100. Here is the method: The enzyme was applied to a 2.6×40 cm DEAE column, washed, and eluted using a 0-300 mM NaCl gradient. The P2O elutes at about 220 mM. Portions of each fraction were assayed for P2O activity, by monitoring peroxide generation conventionally. Protein concentration was also determined by a conventional method. The fractions containing P2O activity were pooled and concentrated by ultrafiltration with an Amicon PM10 filter obtained from Amicon Corp. Peak fractions were dialyzed into 30 mM sodium acetate (pH 5.5), adjusted to 1.5M NaCl and loaded onto a phenylsepharose column. The P2O was eluted with a 0-1.5M NaCl gradient in 50 mM sodium acetate, pH 5.5. The enzyme eluted at about 1.1M NaCl. Fractions containing the peak activity were pooled and concentrated to 0.5 ml by Amicon PM30 ultrafiltration and sized according to native molecular weight using a 1.5×95 cm Biogel P300 column. Elution was at 0.1 ml/minute with 100 mM sodium phosphate, pH 7.0. Using known molecular weight markers in the column, the enzyme's apparent native molecular weight was calculated to be about 130,000 daltons. A single band having a molecular weight of about 65,000 was observed when the enzyme was analyzed by SDS-PAGE. The enzyme thus appears to be a homodimer. The enzyme was judged to be about 95% pure, based on the staining intensity of protein bands in SDS-PAGE.
The relative activities of the enzyme on the substrates D-glucose, L-sorbose, D-xylose and delta-D-gluconolactone are 100: 74: 41: 6, respectively, at 1% (w/v) substrate concentration. The enzyme has a pH optimum of about 5.0.

Data set [1] can be described thus: Nonenzymatic breakdown of purified glucosone (UV scans 200-350 nm; H2O2 effect). The class given is physicochemical. The conditions noted are these: for Change of 310 nm peak (nonenzymatic breakdown): 0.5% glucosone solution, scans at one minute intervals. The method, then: The conversion of a pyranose to the corresponding pyranosone by P2O in the presence of oxygen is accompanied by the stoichiometric production of H2 O2. The H2 O2 produced in the reaction may promote oxidative degradation of the product. Studies performed in support of the present application indicate that nonenzymatic breakdown of glucosone to acidic products may be accelerated at H2 O2 concentrations above about 0.2 mM. More importantly, elevated H2 O2 concentrations produce relatively rapid inactivation of the P2O enzyme. The susceptibility of P2O to inactivation by elevated concentrations of H2 O2 in a continuous-flow reactor is described below in Example XIII. Briefly, four continuous-flow reactors containing different P2O/catalase activity ratios were run in the presence of pure glucose. The half-life of the P2O enzyme in each reactor was determined from the observed change in the amount of glucosone eluting from the reactor over a several-day reaction period. The measured half-lives of P2O expressed in arbitrary half-life units, are given in Example XIII, Table 1. As will be seen from the table, the presence of catalase, at a P2O/catalase activity ratio of less than about 10^-3 and preferably less than about 2×10^-4 (i.e., at an H2 O2 concentration of less than about 0.2mM) extends the measured P2O half-life 30-60 fold with respect to that of P2O reacted with glucose in the absence of catalase.
Secondly, studies indicate that pure glucosone undergoes relatively rapid, nonenzymatic breakdown above a pH of about 7.0. […] Immediately thereafter, the solution was scanned spectrophotometrically in the UV range between 200 and 350 nm, at one minute intervals.

In the case of `O=C1O[C@H](CO)[C@@H](O)[C@H](O)[C@H]1O` [delta-D-gluconolactone, D-gluconic acid delta-lactone], the results for the “Relative activity of the enzyme on substrate” value (“Relative activity” below) in the data set on L. betulinus P2O, in the data set on P. obtusus P2O and at C. versicolor P2O were 26, 12 and 6, respectively.
Turning to `O=C[C@H](O)[C@@H](O)[C@H](O)CO` [D-xylose], the “Relative activity” value with L. betulinus P2O is on record as 43; with P. obtusus P2O, 48; on C. versicolor P2O, 41.
The matching figures for `O=C[C@H](O)[C@@H](O)[C@H](O)[C@H](O)CO` [D-glucose]: 100, 100 and 100.
Turning to `O=CC(=O)[C@@H](O)[C@H](O)[C@H](O)CO` [glucosone, D-arabino-2-hexosulose], the “H2O2 concentration above which nonenzymatic breakdown to acidic products may be accelerated” value in data set [1] was “above 0.2 mM”. Moreover, the “Change of 310 nm peak (nonenzymatic breakdown)” value is “no initial peak at 310 nm was observed nor did one form” in data set [1] (pH 6.0) and “increasing several-fold over a five minute period” in data set [1] (pH 7.0, buffered).
As to `O=C(CO)[C@@H](O)[C@H](O)[C@@H](O)CO` [L-sorbose], the “Relative activity” value in the data set on L. betulinus P2O was 43; in the data set on P. obtusus P2O, 80; at C. versicolor P2O, 74.

Values taken from patent publication US4569910A, “Methods and reagents for pyranosone production” (Cetus Corporation, priority 1984, dated 1986).
